Earlier results in patent US20240226035A1, “Precision Medicine Approach to Treating Parkinson's Disease with a Monoamine Oxidase Inhibitor, an Antioxidant, or Both” (UNIVERSITY OF NORTH TEXAS HEALTH SCIENCE CENTER AT FORT …, priority 2021, published 2024).

Conditions: DATATOP trial
[1] = deprenyl 10 mg/day, PD patients

Structure (SMILES): C#CCN(C)[C@H](C)Cc1ccccc1 [deprenyl]
- effect on reducing PD symptoms (deprenyl 10 mg/d, after 14 months, trial discontinued and became open-label): positive effects
- postponing levodopa-related adverse events or extending life [1]: no benefit
- time until disability that warranted initiation of levodopa therapy [1]: delayed time until disability that warranted initiation of levodopa therapy
